# Reference: publication PMC8445934, “Transformation of tenofovir into stable ProTide nanocrystals with long-acting pharmacokinetic profiles” (Nature Communications, 2021)
# Several values for one entry are separate records, joined by “and”; a condition that tells them apart may be missing. Identical values can stand only once. Like-named read-outs stand apart in the source and are kept apart here.
# How the values were obtained:
# HIV-1NL4–3-eGFP = assay: microbe, parasite or virus in culture; assay type: cell-based; settings: for % GFP Positive: replicates
# Excerpt: Supplementary Fi gur e 9. ProTide Biological Characterizations. […]
# (1 picture or pasted object on this page, not shown here)
# [1] = Aqueous and 1-octanol solubility (excess drug, shaking 48 h, UPLC-UV); assay type: physicochemical; settings: for solubility at 48 h: water, thermodynamic from solid
# Method: Samples were centrifuged at 20,000 × g for 10 min to separate the solubilized drug from insoluble pellet. Aqueous supernatants were frozen, lyophilized, and then resuspended in MeOH. 1-octanol supernatants were prepared for analysis by dilution in MeOH and samples analyzed for drug content by UPLC-UV (Waters Acquity H Class).
# [2] = system: human monocyte-derived macrophages (MDM); assay: MTT cell viability / mitochondrial activity assay in MDM; settings: for Cell viability by MTT, normalized to untreated control cells: replicates
# Method: Human monocytes were obtained, cultured, and differentiated into MDM as previously described[11],[12],[34],[62]. The cell viability after treatment with nanoparticles was evaluated using the MTT assay. […] The cells were then washed with PBS after which 100 μL of MTT solution was added to each well (5 mg/mL) for 45 min at 37 °C. The MTT solution was then replaced with 200 μL/well of DMSO. A Molecular Devices SpectraMax M3 plate reader with SoftMax Pro 6.2 software (Sunnyvale, CA) was used to record absorbance at a wavelength of 490 nm.
structure (smiles),measurement,setting,value
"CC(C)OC(=O)[C@H](C)N[P@](=O)(CO[C@H](C)Cn1cnc2c(N)ncnc21)Oc1ccccc1 [TAF, tenofovir alafenamide]",EC50,"HIV-1NL4–3-eGFP; Human immunodeficiency virus 1, CEM-SS",330 pM
same,% GFP Positive,HIV-1NL4–3-eGFP; Log Drug Concentration (uM) 0,0.094% and 0.243% and 0.132%
same,% GFP Positive,HIV-1NL4–3-eGFP; Log Drug Concentration (uM) -1,0.087% and 0.114% and 0.038%
same,% GFP Positive,HIV-1NL4–3-eGFP; Log Drug Concentration (uM) -2,0.071% and 0.098% (2×)
same,% GFP Positive,HIV-1NL4–3-eGFP; Log Drug Concentration (uM) -3,0.109% and 0.099% and 0.2%
same,% GFP Positive,HIV-1NL4–3-eGFP; Log Drug Concentration (uM) -4,39.441% and 35.802% and 35.047%
same,% GFP Positive,HIV-1NL4–3-eGFP; Log Drug Concentration (uM) -5,32.55% and 34.185% and 34.763%
same,% GFP Positive,HIV-1NL4–3-eGFP; Log Drug Concentration (uM) -6,38.186% and 33.243% and 31.663%
same,% GFP Positive,HIV-1NL4–3-eGFP; Log Drug Concentration (uM) -9,36.164% and 40.34% and 38.638%
same,% GFP Positive,HIV-1NL4–3-eGFP; Log Drug Concentration (uM) -12,43.7% and 40.475% and 37.429%
same,"water solubility, individual replicates",[1]; Figure 1C source data,4.882
same,solubility at 48 h,"[1]; Figure 1C source data, read-out: water solubility, individual replicates",6160 µg/mL
same,solubility at 48 h,"[1]; room temperature, 48 h, read-out: aqueous solubilities",5520 µg/mL
same,toxicity to cells,[2]; 100 μM,highly toxic to cells
same,concentration above which a decrease in cell viability was observed,[2]; 8 h,above 12.5 μM
same,"Cell viability by MTT, normalized to untreated control cells","[2]; 8 h, 1.5625 uM",0.7334 and 0.7343 and 0.7491
same,"Cell viability by MTT, normalized to untreated control cells","[2]; 8 h, 3.125 uM",0.6802 and 0.6819 and 0.7483
same,"Cell viability by MTT, normalized to untreated control cells","[2]; 8 h, 6.25 uM",0.6627 and 0.6548 and 0.6836 and 0.7177
same,"Cell viability by MTT, normalized to untreated control cells","[2]; 8 h, 25 uM",0.6304 and 0.5666 and 0.5754 and 0.5928
same,"Cell viability by MTT, normalized to untreated control cells","[2]; 8 h, 50 uM",0.4531 and 0.3981 and 0.3597 and 0.4348
same,"Cell viability by MTT, normalized to untreated control cells","[2]; 8 h, 100 uM",0.3842 and 0.3676 and 0.4051 and 0.4296
same,"Cell viability by MTT, normalized to untreated control cells","[2]; 8 h, 200 uM",0.3562 and 0.31 and 0.303 and 0.3222
